Results taken from ChEMBL document CHEMBL1201862, “PubChem BioAssay data set” (2004).
Blank lines part the entries; values can stand above or below the compound they belong to. The source made the active and inactive calls.

How the values were obtained:
BJ [1] = assay: BJ-TERT-LT-ST fibroblast viability loss – cell-based, RAS-independent, luminescence, dose response (AID 1935); format: functional; settings: Homo sapiens;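 further: BJ fibroblasts immortalized with TERT plus LT and ST oncogenes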
[2] = DRD fibroblast viability loss – cell-based, non-viral oncogenic, luminescence, dose response (AID 1934); format: functional; settings: Homo sapiens
BJ [3] = assay: BJ-TERT fibroblast viability loss – cell-based, RAS-independent, luminescence, dose response (AID 1933); format: functional; settings: Homo sapiens
Vero = assay: mammalian cell viability reduction – secondary assay, cytotoxicity control for West Nile virus antiviral project, dose response (AID 1650); format: functional; settings: Chlorocebus sabaeus
BJ [4] = assay: cells; format: functional, cell-based; settings: Homo sapiens
[5] = target: T1, E3 ubiquitin-protein ligase XIAP (Homo sapiens, UniProt P98170); assay: Counter Screen using XIAP-Bir3 for Chemical Antagonists of Bir1/2 domains of IAP-family anti-apoptotic proteins. [Related pubchem assays (depositor defined):AID1018, AID1449, AID1514, AID1638, AID1749, AID1750, AID488957, AID488963]
[6] = viability loss in HepG2 hepatoma cells – cell-based, ATP luminescence, cherry-pick, activator set 2, cytotoxicity control, dose response (AID 1053143); format: functional
[7] = target: T1, E3 ubiquitin-protein ligase XIAP; assay: small molecules displacing peptide from XIAP – biochemical, IAP family, fluorescence polarization (AID 1018); format: functional
[8] = target: Dual specificity protein phosphatase 3 (Homo sapiens, UniProt P51452); assay: SAR VHR1 Fluorescent Assay for In Vitro dose response studies Set 2. [Related pubchem assays (depositor defined):AID1654, AID1661, AID1878]; format: functional
[9] = target: T2, Tyrosine-protein phosphatase non-receptor type 7 (Homo sapiens, UniProt P35236); assay: SAR analysis of chemical inhibitors of HePTP using a Fluorescent assay - Set 2. [Related pubchem assays (depositor defined):AID1059, AID1077, AID1661, AID2085, AID521]; format: functional
T2 sequence (P35236 whole entry): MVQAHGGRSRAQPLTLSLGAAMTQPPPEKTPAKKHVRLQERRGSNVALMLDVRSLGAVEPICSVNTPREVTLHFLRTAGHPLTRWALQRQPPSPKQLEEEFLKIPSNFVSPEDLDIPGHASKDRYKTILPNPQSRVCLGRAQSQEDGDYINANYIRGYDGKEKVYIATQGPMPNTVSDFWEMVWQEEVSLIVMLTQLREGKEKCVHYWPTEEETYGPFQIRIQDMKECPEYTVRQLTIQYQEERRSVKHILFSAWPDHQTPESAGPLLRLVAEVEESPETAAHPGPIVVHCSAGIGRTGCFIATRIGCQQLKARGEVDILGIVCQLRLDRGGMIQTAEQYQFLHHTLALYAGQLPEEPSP

[10] = NIH3T3 cell viability loss – ATP luminescence, mouse fibroblasts, counter-screen, dose response (AID 2010); format: functional, cell-based;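 further: cells exposed to compound for about 90 hours before reading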
[11] = target: T3, Short transient receptor potential channel 4 (Mus musculus, UniProt Q9QUQ5); assay: calcium entry via TRPC4 opening agents – cell-based, HEK293 TRPC4/mu-opioid, Fluo-4 calcium, dose response (AID 434937); format: functional
T3 sequence (Q9QUQ5 whole entry): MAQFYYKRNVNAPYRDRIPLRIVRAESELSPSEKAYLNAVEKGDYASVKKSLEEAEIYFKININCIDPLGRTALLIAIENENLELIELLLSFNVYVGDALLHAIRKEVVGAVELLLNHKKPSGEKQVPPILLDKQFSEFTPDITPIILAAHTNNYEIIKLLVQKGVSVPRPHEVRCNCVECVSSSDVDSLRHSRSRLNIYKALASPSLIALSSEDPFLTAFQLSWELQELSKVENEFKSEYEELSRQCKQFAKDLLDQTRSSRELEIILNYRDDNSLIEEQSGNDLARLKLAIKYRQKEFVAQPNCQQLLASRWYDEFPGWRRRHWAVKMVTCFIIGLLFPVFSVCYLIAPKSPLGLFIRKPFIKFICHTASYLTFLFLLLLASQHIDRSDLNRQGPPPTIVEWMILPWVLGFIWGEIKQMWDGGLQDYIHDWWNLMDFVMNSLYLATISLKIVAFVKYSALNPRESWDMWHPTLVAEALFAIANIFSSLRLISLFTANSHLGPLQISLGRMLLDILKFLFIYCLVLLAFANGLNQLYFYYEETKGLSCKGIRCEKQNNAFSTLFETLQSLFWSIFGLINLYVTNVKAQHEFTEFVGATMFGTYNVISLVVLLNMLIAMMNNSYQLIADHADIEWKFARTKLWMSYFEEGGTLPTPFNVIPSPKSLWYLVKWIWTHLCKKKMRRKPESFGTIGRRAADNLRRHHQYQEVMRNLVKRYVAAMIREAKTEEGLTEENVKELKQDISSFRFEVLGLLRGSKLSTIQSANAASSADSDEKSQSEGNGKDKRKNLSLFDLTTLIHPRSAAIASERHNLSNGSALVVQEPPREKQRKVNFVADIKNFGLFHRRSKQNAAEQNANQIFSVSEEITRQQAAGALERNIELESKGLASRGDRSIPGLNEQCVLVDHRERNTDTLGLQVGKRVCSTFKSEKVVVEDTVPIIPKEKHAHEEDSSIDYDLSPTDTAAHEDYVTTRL

[12] = Trypanosoma cruzi growth suppression in host cells – NIH3T3 host cells, beta-gal luminescence, confirmation (AID 2044); format: functional, cell-based;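 further: intracellular parasites grown in NIH/3T3 mouse fibroblasts as host cells; luminescent beta-galactosidase reporter signal from transgenic T. cruzi replicating inside host cells; inhibitors lower the luminescence signal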
Genome polyprotein = Genome polyprotein (dengue virus type 2, UniProt P29990); assay: flavivirus cap methylation enzyme inhibition – biochemical, confirmation dose response, primary screen (AID 588689); format: functional
Hexokinase HKDC1 = target: T4, Hexokinase HKDC1 (Homo sapiens, UniProt Q2TB90); assay: inhibition of HKDC1 glucose phosphorylation – biochemical, W721R variant, dose response (AID 504729); format: functional
T4 sequence (Q2TB90 whole entry): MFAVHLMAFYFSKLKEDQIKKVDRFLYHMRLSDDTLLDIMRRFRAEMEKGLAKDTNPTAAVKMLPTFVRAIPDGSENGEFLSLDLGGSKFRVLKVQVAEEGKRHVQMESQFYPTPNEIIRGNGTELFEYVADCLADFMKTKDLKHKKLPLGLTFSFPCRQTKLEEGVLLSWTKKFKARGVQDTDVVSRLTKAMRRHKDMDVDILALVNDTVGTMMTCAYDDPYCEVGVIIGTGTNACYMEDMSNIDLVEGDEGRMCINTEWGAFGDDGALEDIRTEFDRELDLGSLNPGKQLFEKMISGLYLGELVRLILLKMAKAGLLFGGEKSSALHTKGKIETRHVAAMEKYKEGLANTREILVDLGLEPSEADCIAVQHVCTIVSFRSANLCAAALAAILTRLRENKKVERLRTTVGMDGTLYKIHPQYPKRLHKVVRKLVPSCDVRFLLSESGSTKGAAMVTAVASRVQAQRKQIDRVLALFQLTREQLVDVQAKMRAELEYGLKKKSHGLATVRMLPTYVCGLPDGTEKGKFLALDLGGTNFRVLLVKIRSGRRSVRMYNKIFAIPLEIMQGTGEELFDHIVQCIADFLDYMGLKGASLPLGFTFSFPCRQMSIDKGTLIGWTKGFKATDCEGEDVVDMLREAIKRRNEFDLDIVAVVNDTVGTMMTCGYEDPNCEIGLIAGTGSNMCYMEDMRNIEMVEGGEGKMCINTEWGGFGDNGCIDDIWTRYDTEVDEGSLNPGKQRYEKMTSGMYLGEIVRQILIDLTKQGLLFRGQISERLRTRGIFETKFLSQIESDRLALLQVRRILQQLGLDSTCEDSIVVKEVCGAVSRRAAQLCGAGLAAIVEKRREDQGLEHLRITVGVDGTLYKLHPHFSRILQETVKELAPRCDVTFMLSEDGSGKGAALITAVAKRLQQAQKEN

[13] = target: T5, Carboxy-terminal domain RNA polymerase II polypeptide A small phosphatase 1 (Homo sapiens, UniProt Q9GZU7); assay: CTDSP1 inhibitors, concentration-response, biochemical, absorbance readout, ultra-high-throughput screen actives (AID 540297); format: functional
T5 sequence (Q9GZU7 whole entry): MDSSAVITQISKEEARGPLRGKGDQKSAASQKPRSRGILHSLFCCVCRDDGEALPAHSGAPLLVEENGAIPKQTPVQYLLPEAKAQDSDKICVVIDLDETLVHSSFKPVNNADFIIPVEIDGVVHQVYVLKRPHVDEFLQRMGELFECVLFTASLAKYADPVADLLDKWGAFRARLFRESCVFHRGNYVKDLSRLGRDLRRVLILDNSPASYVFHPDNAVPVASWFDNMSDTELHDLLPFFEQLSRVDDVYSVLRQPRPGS

[14] = target: Scavenger receptor class B member 1 (Mus musculus, UniProt Q61009); assay: mouse SR-BI DiI-HDL uptake blockers – ldlA[mSR-BI] cells, fluorescence, cherry pick, dose response (AID 493194); format: functional, cell-based;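 further: cellular uptake of fluorescent DiI-labeled HDL measured as cell fluorescence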
Bcl-2-like protein 10 = target: T6, Bcl-2-like protein 10 (Homo sapiens, UniProt Q9HD36); assay: Bcl-B/TR3 peptide binding disruption – biochemical, fluorescence polarization, FITC-TR3 peptide, selectivity assay for Bfl-1 inhibitor project, primary screen (AID 748);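 further: fluorescence polarization from a fluorescein-labelled TR3 peptide binding purified Bcl-B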
T6 sequence (Q9HD36 whole entry): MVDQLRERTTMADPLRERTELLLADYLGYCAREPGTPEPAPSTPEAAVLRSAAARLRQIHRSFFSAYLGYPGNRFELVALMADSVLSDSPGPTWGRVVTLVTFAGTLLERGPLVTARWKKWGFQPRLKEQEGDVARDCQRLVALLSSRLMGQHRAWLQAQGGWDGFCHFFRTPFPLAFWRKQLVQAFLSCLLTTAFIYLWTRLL

Estrogen receptor = Estrogen receptor (Homo sapiens, UniProt P03372);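 further: potency for inhibiting coactivator peptide recruitment to the receptor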
Estrogen receptor beta [15] = target: T7, Estrogen receptor beta (Homo sapiens, UniProt Q92731);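 further: recombinant ER-beta bound to coactivator SRC1 peptide in presence of estradiol agonist; inhibitors block coactivator peptide binding and lower the FRET signal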
Estrogen receptor beta [16] = target: T7, Estrogen receptor beta; assay: blockers of SRC-3 recruitment to ERβ – biochemical, ELISA, streptavidin-HRP readout, orthogonal assay, confirmation (AID 1060)
[17] = target: Lysosomal acid glucosylceramidase (Homo sapiens, UniProt P04062); assay: Dose response cell-based high throughput screening assay to identify enhancers of beta-glucosidase activity. [Related pubchem assays: 784 ]; format: functional
Aspartyl aminopeptidase = Aspartyl aminopeptidase (Plasmodium falciparum 3D7, UniProt Q8I2J3)
Procathepsin L = Procathepsin L (Homo sapiens, UniProt P07711)
[18] = target: T3, Short transient receptor potential channel 4; assay: block of DAMGO-driven TRPC4 calcium entry – cell-based, HEK293 TRPC4/mu-opioid, Fluo-4 calcium, dose response (AID 434942); format: functional;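 further: potency of inhibitors blocking the TRPC4 calcium response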

T7 sequence (Q92731 whole entry): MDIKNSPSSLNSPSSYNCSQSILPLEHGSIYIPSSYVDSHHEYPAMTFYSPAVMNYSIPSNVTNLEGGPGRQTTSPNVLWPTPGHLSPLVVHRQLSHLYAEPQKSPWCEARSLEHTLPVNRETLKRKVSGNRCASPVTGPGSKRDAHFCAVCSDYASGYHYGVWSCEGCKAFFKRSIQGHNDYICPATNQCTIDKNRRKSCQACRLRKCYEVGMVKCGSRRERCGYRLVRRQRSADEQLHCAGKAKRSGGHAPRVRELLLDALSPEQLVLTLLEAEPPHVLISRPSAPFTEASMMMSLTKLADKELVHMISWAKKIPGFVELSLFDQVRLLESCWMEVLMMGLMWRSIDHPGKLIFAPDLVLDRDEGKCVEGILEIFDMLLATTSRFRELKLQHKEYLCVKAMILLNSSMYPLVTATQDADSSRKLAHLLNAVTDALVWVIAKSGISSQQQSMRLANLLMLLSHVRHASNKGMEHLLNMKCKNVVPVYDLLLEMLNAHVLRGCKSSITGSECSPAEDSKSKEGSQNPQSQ
T1 sequence (P98170 whole entry): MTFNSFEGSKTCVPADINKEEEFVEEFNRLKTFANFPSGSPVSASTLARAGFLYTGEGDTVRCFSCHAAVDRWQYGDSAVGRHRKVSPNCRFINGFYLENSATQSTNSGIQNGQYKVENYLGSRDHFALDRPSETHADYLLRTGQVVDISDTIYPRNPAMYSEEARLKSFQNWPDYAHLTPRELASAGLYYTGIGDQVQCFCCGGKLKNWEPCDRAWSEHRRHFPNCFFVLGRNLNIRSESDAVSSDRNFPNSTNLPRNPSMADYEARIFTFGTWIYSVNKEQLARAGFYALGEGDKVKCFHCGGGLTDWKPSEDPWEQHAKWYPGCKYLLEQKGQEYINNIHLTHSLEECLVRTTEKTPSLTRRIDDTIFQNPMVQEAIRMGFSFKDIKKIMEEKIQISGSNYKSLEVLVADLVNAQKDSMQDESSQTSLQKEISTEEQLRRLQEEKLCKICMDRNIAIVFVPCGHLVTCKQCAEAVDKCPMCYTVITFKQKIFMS
Sequence of Dual specificity protein phosphatase 3 (P51452 whole entry): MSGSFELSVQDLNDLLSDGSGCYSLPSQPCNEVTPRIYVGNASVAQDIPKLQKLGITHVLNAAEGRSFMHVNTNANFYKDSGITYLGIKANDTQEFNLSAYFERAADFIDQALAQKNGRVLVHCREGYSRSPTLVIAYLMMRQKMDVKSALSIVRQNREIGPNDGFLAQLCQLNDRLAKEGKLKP
Sequence of Procathepsin L (P07711 whole entry): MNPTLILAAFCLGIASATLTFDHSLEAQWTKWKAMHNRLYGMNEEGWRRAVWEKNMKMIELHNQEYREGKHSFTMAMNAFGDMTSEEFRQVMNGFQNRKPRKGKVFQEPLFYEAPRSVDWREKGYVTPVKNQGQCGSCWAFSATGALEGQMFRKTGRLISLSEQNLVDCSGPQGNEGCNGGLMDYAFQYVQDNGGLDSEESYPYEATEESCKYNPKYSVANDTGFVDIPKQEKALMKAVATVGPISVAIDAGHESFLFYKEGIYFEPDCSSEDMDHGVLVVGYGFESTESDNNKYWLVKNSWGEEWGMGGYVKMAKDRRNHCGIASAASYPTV
Sequence of Aspartyl aminopeptidase (Q8I2J3 whole entry): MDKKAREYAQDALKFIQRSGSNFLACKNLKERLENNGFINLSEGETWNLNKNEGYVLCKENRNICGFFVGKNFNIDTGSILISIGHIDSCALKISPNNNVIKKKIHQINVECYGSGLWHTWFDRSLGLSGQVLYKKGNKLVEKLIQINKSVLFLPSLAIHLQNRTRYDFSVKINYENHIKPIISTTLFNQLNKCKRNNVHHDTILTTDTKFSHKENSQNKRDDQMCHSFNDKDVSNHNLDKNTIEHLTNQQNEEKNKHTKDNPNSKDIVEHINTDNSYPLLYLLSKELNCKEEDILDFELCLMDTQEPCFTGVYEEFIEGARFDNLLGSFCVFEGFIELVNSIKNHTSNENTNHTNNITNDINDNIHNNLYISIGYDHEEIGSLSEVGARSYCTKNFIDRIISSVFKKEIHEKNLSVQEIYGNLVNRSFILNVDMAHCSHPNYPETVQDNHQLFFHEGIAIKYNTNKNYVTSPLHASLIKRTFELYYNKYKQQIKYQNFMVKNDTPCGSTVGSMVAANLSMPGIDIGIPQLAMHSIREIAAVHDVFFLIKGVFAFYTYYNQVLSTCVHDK
Sequence of Scavenger receptor class B member 1 (Q61009 whole entry): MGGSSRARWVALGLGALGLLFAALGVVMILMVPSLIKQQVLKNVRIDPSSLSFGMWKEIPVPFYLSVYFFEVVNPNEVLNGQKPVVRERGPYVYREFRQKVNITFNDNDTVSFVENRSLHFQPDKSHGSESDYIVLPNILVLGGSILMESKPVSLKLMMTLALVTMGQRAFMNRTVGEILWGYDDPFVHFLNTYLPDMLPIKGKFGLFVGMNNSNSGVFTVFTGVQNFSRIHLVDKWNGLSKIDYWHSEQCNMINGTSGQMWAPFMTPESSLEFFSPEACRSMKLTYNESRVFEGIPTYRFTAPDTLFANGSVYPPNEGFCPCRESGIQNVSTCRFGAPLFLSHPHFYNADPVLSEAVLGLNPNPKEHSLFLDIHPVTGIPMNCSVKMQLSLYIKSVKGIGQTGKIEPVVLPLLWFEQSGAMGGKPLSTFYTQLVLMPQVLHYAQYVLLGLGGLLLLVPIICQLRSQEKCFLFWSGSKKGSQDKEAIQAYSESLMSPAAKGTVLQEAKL
Sequence of Lysosomal acid glucosylceramidase (P04062 whole entry): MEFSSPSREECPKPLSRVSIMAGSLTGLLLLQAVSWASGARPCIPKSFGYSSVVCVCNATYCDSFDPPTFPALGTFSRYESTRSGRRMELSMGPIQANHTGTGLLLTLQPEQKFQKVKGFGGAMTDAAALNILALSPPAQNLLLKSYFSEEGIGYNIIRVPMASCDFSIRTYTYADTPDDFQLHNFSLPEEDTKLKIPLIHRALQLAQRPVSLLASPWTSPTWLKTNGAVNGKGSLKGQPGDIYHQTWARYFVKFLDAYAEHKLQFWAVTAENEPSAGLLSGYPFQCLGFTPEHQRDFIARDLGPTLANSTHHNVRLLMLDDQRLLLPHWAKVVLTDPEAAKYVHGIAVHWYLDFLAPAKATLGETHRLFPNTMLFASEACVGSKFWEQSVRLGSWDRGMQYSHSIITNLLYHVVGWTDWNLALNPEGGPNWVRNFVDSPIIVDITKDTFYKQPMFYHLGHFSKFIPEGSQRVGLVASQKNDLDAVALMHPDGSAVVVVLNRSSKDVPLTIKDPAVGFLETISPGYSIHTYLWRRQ
Sequence of Estrogen receptor (P03372 whole entry): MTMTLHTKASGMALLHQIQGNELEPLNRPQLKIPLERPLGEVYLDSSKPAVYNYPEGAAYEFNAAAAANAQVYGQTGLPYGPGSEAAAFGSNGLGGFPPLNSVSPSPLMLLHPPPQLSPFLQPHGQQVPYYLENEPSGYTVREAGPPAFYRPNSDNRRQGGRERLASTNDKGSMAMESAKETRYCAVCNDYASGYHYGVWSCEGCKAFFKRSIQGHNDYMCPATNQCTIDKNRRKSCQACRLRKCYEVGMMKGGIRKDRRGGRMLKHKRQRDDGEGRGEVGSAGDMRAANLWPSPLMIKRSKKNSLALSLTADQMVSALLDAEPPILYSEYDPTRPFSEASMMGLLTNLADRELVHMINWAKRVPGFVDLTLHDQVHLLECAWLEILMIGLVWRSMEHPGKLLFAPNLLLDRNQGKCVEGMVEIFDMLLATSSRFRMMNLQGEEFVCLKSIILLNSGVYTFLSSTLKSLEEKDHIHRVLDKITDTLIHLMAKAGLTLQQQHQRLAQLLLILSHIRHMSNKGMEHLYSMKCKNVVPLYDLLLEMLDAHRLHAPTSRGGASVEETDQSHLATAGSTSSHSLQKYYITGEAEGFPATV
Sequence of Genome polyprotein (P29990 2492-3391 limits assumed): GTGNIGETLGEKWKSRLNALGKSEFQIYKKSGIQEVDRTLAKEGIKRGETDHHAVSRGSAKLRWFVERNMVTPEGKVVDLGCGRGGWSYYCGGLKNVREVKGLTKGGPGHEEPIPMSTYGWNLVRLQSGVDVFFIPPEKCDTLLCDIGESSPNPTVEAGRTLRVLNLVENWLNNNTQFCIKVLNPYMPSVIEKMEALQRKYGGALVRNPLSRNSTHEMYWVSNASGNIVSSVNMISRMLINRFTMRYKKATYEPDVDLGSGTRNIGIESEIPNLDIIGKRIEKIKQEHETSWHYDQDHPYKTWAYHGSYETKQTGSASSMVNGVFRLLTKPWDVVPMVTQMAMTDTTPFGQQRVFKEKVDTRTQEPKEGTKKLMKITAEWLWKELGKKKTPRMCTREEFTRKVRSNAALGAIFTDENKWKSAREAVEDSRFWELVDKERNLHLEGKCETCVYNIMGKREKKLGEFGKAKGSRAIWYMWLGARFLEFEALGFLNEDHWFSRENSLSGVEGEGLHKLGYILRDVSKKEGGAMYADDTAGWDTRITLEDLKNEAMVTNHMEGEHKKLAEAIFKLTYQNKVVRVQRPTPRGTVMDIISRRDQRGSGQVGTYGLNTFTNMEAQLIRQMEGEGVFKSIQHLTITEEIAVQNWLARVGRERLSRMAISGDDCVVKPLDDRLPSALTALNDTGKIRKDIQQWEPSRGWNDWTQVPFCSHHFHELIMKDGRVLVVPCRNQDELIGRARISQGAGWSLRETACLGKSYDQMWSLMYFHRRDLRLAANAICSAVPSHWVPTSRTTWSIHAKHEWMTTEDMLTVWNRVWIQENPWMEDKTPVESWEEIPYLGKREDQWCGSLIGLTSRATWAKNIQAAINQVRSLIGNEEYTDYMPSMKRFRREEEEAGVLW

Structure (SMILES): O=S(=O)(Nc1cc(Sc2cccc3cccnc23)c(O)c2ccccc12)c1ccccc1
EC50 (BJ [1]): > 75 µM (inconclusive) | EC50 [2]: 16.1 µM (active) | EC50 (BJ [3]): 12.1 µM (inconclusive) | CC50 (Vero): 6.77 µM (active) | EC50 (BJ [4]): 22.1 µM (inconclusive)

Structure (SMILES): COc1cc(OC)cc(-c2nc3cc(C)ccc3o2)c1
IC50 [5]: > 100 µM (inactive) | AC50 [6]: 26 µM (active) | IC50 [7]: > 100 µM (not active)

Structure (SMILES): COc1ccc(OC)c(C(=S)NCc2ccc(F)cc2)c1
IC50 [8]: 13.5 µM (active) | IC50 [9]: 8.78 µM (active)

Structure (SMILES): Nc1c(C(=O)c2ccccc2)sc2nsc(SCCN3CCCC3)c12
EC50 [10]: 14.9 µM (active) | EC50 [11]: 5.96 µM (active) | EC50 (BJ [1]): 12.5 µM (active) | EC50 [2]: 15.1 µM (active) | EC50 (BJ [3]): 12.8 µM (active) | EC50 [12]: 0.636 µM (active) | EC50 (BJ [4]): 7.28 µM (active)

Structure (SMILES): COC1=CC(=O)C(C2CC(=O)c3c(O)cc(O)cc3O2)=CC1=O (stereo unspecified)
IC50 (Genome polyprotein): 9.23 µM (active) | IC50 (Hexokinase HKDC1): 11.5 µM (active)

Structure (SMILES): O=C(O)c1cccc(N2C(=O)C3CC=C(Cl)CC3C2=O)c1 (stereo unspecified)
IC50 [13]: 10.3 µM (active) | IC50 [5]: > 100 µM (inactive) | IC50 [7]: > 100 µM (not active)

Structure (SMILES): N#Cc1sc2nc(C3CC3)cc(-c3ccc(Cl)cc3)c2c1N
AC50 [14]: 2.36 µM (active)

Structure (SMILES): CCCOc1ccc(C(=S)NCc2ccc(F)cc2)cc1
IC50 [8]: 15.1 µM (active) | IC50 [9]: 19.5 µM (active)

Structure (SMILES): Cc1cc(Cl)ccc1OCC(=O)OC(C)C(=O)N(C)C (stereo unspecified)
IC50 [13]: 15.3 µM (active) | IC50 (Bcl-2-like protein 10): > 100 µM (inactive) | IC50 (Estrogen receptor): 37 µM (not active) | IC50 (Estrogen receptor beta [15]): 16.7 µM (active) | IC50 (Estrogen receptor beta [16]): < 0.023 µM (not active)

The remaining lines, values ahead:

AC50 [14]: 27.5 µM (active)
Structure (SMILES): CCc1ccc(NC(=O)C2CCCN(S(=O)(=O)c3ccc4nc(O)ccc4c3)C2)cc1 (stereo unspecified)

EC50 [17]: > 50 µM (not active)
Structure (SMILES): Cc1ccc(C)n1-c1ccc(C(=O)NCC2CCCO2)cc1 (stereo unspecified)

IC50 (Estrogen receptor): 30 µM (not active) | IC50 (Estrogen receptor beta [15]): 11.2 µM (active) | IC50 (Estrogen receptor beta [16]): 0.35 µM (not active)
Structure (SMILES): COc1ccc(-c2nnc(SC/C(O)=C(/C#N)C(C)=N)o2)cc1

IC50 (Aspartyl aminopeptidase): 1.46 µM (active) | IC50 (Procathepsin L): > 59.6 µM (not active)
Structure (SMILES): O=C(Nc1ccc(F)c(Cl)c1)Nn1cnnc1

EC50 [17]: > 50 µM (not active)
Structure (SMILES): Cc1c(C)c2cc3c4c(oc3c(C)c2oc1=O)CCCC4

IC50 (Aspartyl aminopeptidase): 0.603 µM (active) | IC50 (Procathepsin L): > 59.6 µM (not active)
Structure (SMILES): OC(Cn1cnnc1)c1ccccc1 (stereo unspecified)

EC50 [18]: 5.31 µM (active)
Structure (SMILES): COc1ccc(C(c2nnnn2C2CCCC2)N2CCN(c3ccccc3)CC2)cc1 (stereo unspecified)
